Legend:
[1] = test system: Ramos cells (B-cell lymphoma); assay: Proliferation inhibition, Ramos (cck-8); type: cell-based; settings: Homo sapiens, 96 h incubation
Description: Calculating the value of IC50 as per the formula: Y=background data+(top data−background data)/(1+10^((Log IC50−X)*rate of curve)). Where, Y refers to the inhibition ratio (%) and X refers to the compound concentration.

HDAC4 = biological target: T1, HDAC4 (Homo sapiens, UniProt P56524); assay: HDAC4 enzyme inhibition (Lys-Ac-AMC); type: biochemical; settings: Table 4, graded
T1 construct: purchased BPS Bioscience 50004
T1 sequence (P56524 627-1084 limits assumed): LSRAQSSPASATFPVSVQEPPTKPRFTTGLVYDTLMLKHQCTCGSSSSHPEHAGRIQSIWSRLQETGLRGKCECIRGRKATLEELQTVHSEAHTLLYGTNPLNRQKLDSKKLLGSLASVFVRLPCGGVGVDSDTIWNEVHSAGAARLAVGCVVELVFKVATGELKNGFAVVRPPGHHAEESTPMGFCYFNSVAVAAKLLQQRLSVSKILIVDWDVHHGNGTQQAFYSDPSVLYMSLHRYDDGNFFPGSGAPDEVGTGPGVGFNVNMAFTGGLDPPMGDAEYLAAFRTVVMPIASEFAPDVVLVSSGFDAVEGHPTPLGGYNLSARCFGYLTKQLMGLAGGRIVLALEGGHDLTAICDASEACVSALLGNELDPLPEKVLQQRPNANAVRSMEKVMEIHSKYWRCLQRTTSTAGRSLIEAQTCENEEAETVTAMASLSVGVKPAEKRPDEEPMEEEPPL
Description: (§1) Determining the inhibition capability of HDAC through the substrate method of fluorophore coupled acetylized peptide fragment (Lys-Ac-AMC). HDAC2-11 proteins of subtypes are purchased from BPS Bioscience Company with the Art. […] The reaction buffer system is a modified Tris buffer (pH7.0). The small molecule compounds are prepared and dissolved with 100% DMSO. […] Adding the compound into the reaction wells of the 384 well plate at the designed concentration, then adding 15 μL HDAC enzyme solution into the reaction wells (adding 15 μL blank buffer into the control well 0) for incubation under ambient temperature for 15 min; then adding 10 μL substrate solution to start reaction.
(§2) Analyzing the result data with the software GraphPad Prism and calculating the value of IC50 as per the formula: Y=background data+(top data−background data)/(1+10^((Log IC50−X)*rate of curve)). Where, Y refers to the inhibition ratio (%) and X refers to the compound concentration.

[2] = test system: acetylated Ac-α-tubulin in A2780s cells; assay: Induction of α-tubulin acetylation in A2780s cells (cytoblot); type: cell-based; settings: Homo sapiens, 6 h treatment, read-out: Ac-Tub EC50
Description: Specific operation: After the treatment, washing each well once with 50-100 μl of cold TBS buffer [with the composition as 20 mM Tris (trismetyl aminomethane), pH7.5] and fixing it with 100 μL of 4% pre-cooled paraformaldehyde at 4° C. for 1 h; after paraformaldehyde is washed off, adding 50 μL of pre-cooled methyl alcohol in each well and evenly spreading at 4° C. for 5 min; after methyl alcohol is washed off, washing it once with the TBS buffer containing 3% skim milk powder and adding 50 μL of antibody fluid, oscillating it slightly at 4° C. and incubating overnight. For determination of Ac—H3, the antibody fluid is prepared by diluting Ac—H3 antibody and horseradish peroxide coupled secondary antibody to a same system with the TBS buffer containing 3% skim milk powder (Ac—H3 antibody is purchased from Santa Cruz Company and diluted at a ratio of 1:100; horseradish peroxide coupled secondary antibody is purchased from Jackson Company and diluted at a ratio of 1:2000); for determination of acetylated Ac-α-tubulin, the antibody fluid is prepared by diluting Ac-α-tubulin antibody and horseradish peroxide coupled secondary antibody to a same system with the TBS buffer containing 3% skim milk powder (Ac-α-tubulin antibody is purchased from Santa Cruz Company and diluted at a ratio of 1:100; horseradish peroxide coupled secondary antibody is purchased from Jackson Company and diluted at a ratio of 1:2000).
Calculating the value of IC50 as per the formula: Y=background data+(top data−background data)/(1+10^((Log EC50−X)*rate of curve)) Where, Y refers to the activating rate (%) and X refers to the compound concentration.

HDAC6 = biological target: T2, HDAC6 (Homo sapiens, UniProt Q9UBN7); assay: HDAC6 enzyme inhibition (Lys-Ac-AMC); type: biochemical; settings: Table 4, graded
T2 construct: purchased BPS Bioscience 50006
T2 sequence (Q9UBN7 1-1215): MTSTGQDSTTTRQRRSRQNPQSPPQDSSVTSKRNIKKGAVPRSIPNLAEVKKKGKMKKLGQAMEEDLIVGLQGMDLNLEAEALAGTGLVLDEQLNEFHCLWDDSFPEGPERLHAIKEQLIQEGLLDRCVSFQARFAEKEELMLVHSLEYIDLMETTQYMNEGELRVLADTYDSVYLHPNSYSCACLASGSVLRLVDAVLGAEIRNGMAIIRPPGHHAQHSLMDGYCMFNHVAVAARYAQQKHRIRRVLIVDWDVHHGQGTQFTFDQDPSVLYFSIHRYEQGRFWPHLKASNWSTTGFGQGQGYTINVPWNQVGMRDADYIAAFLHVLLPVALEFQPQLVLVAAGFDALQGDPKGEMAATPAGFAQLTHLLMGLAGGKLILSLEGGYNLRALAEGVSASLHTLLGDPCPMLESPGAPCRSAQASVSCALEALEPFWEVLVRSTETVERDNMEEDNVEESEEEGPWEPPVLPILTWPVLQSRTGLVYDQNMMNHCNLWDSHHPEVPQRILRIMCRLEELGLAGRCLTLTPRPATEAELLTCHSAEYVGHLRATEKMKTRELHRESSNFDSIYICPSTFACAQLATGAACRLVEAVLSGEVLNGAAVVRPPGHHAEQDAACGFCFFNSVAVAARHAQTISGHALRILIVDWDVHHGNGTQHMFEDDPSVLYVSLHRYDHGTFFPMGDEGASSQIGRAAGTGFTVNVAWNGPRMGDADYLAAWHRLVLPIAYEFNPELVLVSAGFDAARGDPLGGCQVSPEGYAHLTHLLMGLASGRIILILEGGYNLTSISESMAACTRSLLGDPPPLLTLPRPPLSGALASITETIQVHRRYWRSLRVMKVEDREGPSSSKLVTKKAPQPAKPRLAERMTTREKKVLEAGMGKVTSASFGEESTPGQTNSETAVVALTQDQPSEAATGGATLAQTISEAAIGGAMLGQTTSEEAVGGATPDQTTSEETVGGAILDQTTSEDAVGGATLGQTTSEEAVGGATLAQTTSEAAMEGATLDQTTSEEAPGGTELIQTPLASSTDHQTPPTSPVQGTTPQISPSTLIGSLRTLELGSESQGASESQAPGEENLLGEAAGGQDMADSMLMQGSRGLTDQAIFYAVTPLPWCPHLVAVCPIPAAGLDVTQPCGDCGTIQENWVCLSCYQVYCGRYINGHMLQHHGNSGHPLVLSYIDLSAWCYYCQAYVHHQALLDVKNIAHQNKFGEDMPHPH
Description: as §1, §2

Row | SMILES | IC50 [1] | IC50 (HDAC4) | EC50 [2] | IC50 (HDAC6)
1 | COc1ccc(-c2nc(N3CCOCC3)c3nc(CN(C)c4ncc(C(=O)NO)cn4)n(C)c3n2)cn1 [CLJ-1, 2-(((2-(6-methoxypyridine-3-yl)-9-methyl-6-morpholine-9H-purine-8-yl))methyl(methyl)amino)-N-hydroxyl pyrimidine-5-formamide] | 0.1 to 1 nM | 1000 to 10000 nM | 100 to 200 nM | 1 to 100 nM
2 | CN(Cc1nc2c(N3CCOCC3)nc(-c3cnc(N)nc3)nc2n1C)c1ncc(C(=O)NO)cn1 [CLJ-11, 2-(((2-(2-aminopyrimidine-5-yl)-9-methyl-6-morpholine-9H-purine-8-yl))methyl(methyl)amino)-N-hydroxyl pyrimidine-5-formamide] | 10 to 100 nM | 100 to 1000 nM | 100 to 200 nM | 1 to 100 nM
3 | COc1ccc(-c2nc(N3CCOCC3)c3nc(CN(C)c4ncc(C(=O)NO)cn4)n(C)c3n2)cc1 [CLJ-29, 2-(((2-(4-methoxyphenyl)-9-methyl-6-morpholine-9H-purine-8-yl))methyl(methyl)amino)-N-hydroxyl pyrimidine-5-formamide] | 1 to 10 nM | 1000 to 10000 nM | > 200 nM | 1 to 100 nM
4 | Cc1[nH]c2ccccc2c1CCNCc1ccc(/C=C/C(=O)NO)cc1 [LBH589, panobinostat, reference compound] | 0.1 to 1 nM | – | 100 to 200 nM | –
5 | CN(Cc1nc2c(N3CCOCC3)nc(-c3ccc(N)cc3)nc2n1C)c1ncc(C(=O)NO)cn1 [CLJ-44] | 1 to 10 nM | 1000 to 10000 nM | > 200 nM | 1 to 100 nM
